Test results as given in US6153604A, “Therapeutic substituted guanidines” (Cambridge NeuroScience, Inc., priority 1995, dated 2000).
Counter-ions that a name gives are not always drawn.

What was measured:
[1] = system: rat model of Korsakoff's disease; conditions: pretreatment of animals; cited from earlier work
[2] = system: NMDA-induced excitotoxic damage to the central nervous system; experiment: In vivo assay for protection against NMDA-induced excitotoxic damage to the central nervous system; design: species or system rat (Day 7 neonatal); conditions: Rattus norvegicus, ip, 120 h, intraperitoneal; for inhibition in vivo at 60 µmol/kg: dose 60 μmol/kg; for ED80: 15 minutes after intrastriatal NMDA, neonatal rats, read-out: ED80 (dose that provides 80% of the maximum protection)
Protocol: In vivo assay for protection against NMDA-induced excitotoxic damage to the central nervous system.
The in vivo potency of compounds of the present invention is exemplified by data summarized in Table II and obtained pursuant to the following protocol. Day 7 neonatal rats were anesthetized with metophane inhalation anesthetic for 4-6 minutes, inserted into a stereotaxic apparatus and injected intrastriatally with 0.5 μl of 50 mM NMDA (N-methyl-D-aspartate). 15 minutes after the NMDA injection, the rat pups were injected intraperitoneally with 10, 30 or 60 μmol/kg of the NMDA antagonist of the structure specified in Table II Animals were returned to their mother and watched for signs of distress (e.g., respiratory depression). After five days, the animals were anesthetized with CO2 and then decapitated; their brains were removed and weighed to determine the degree of neuroprotection. Because NMDA injection results in a retardation of brain growth (including necrosis), effects can be measured gravimetrically in terms of the weights of injected and non-injected hemispheres. Two groups of rat pups were used at each of three doses of a compound to generate a neuroprotection dose-response curve. The chemical structure of each of the tested compounds is specified below with the general formula of the compounds shown at the top of Table II with particular substituent groups specified within that Table. Table II discloses 1) the ED80 for each tested compound, i.e., the dose of a compound that provides 80% of the maximum protection against damage to the central nervous system; and 2) the percent (%) maximum protection against damage to the central nervous system provided by the indicated dose expressed as μmol per kilogram bodyweight of the test subject.

[3] = read-out: % maximum protection per dose

Compound | extent of cell loss, hemorrhages and amino acid changes [1] | inhibition in vivo at 60 µmol/kg [2, 3] | ED80 [2] | inhibition in vivo at 30 µmol/kg ([2]; dose 30 μmol/kg, read-out: % maximum protection per dose)
C[C@]12N[C@H](Cc3ccccc31)c1ccccc12 [MK-801, (+)-5-methyl-10,11-dihydro-5H-dibenzo[a,d]cycloheptene-5,10-imine] | markedly attenuates the extent of cell loss, hemorrhages and amino acid changes |  |  | 
CCc1cccc(NC(=N)Nc2cc(C(F)(F)F)ccc2F)c1 [Cmpd. No. 3 (Table II), N-(3-Ethylphenyl)-N'-(2-fluoro-5-trifluoromethylphenyl)guanidine hydrochloride] |  | 76.6% | 15.2 µmol/kg | 
CCc1ccc(Cl)c(NC(=N)Nc2cccc3cccnc23)c1 [Cmpd. No. 11 (Table II), N-(8-Quinolinyl)-N'-(2-chloro-5-ethylphenyl)guanidine hydrochloride] |  |  | 14.2 µmol/kg | 94.5%
CCc1cccc(N(C)C(=N)Nc2cc(CC)ccc2Cl)c1 [Cmpd. No. 4 (Table II), N-(3-Ethylphenyl)-N-methyl-N'-(2-chloro-5-ethylphenyl)guanidine hydrochloride] |  | 77.8% | 19.8 µmol/kg | 
